Source: patent US20040191240A1, “Composition and method for nerve regeneration” (priority 2003, published 2004)
Where no end group is shown, it is not given here.

Tests used:
[1] = system: N1E-115 cells; assay: Growth, cyclin D3 and pRb in N1E-115 cells; assay type: cell-based; settings: for phosphorylation state of pRb / protein level of cyclin D3: Western blot; for growth of N1E-115 cells: after transfection
Method: (§1) NIH3T3 cells, N1E-115 cells and 293T cells were maintained in DMEM containing 10% fetal bovine serum. Lipofectamine 2000 (Invitrogen) was used for transfection. For the stress fiber formation assay, NIH3T3 cells were cultured in serum-free medium for 16 hours after transfection. Stress fiber formation was evoked by incubating the cells with 10% serum for 10 minutes. Hippocampal neurons were prepared from […], as previously described (Neumann, H. et al., Science. 269:549-552, 1995). Briefly, hippocampi were dissected and the meninges removed. The trimmed tissue was dissociated by trituration. The dissociated cells were plated on dishes pre-coated with poly-L-lysine (Sigma), and cultured in DMEM containing 10% fetal bovine serum for 24 hours. Then, the medium was replaced with DMEM with B27 supplement (Invitrogen), and the cells were transfected with GFP or GFP-ΔNLS-p21. Neuronal morphology was estimated at 24 hours after the transfection.

[2] = target: T1, myc-Rho-kinase (Bos taurus, UniProt Q28021); assay: Rho-kinase kinase assay with lysates of transfected 293T cells; assay type: cell-based
T1 sequence (Q28021 whole entry): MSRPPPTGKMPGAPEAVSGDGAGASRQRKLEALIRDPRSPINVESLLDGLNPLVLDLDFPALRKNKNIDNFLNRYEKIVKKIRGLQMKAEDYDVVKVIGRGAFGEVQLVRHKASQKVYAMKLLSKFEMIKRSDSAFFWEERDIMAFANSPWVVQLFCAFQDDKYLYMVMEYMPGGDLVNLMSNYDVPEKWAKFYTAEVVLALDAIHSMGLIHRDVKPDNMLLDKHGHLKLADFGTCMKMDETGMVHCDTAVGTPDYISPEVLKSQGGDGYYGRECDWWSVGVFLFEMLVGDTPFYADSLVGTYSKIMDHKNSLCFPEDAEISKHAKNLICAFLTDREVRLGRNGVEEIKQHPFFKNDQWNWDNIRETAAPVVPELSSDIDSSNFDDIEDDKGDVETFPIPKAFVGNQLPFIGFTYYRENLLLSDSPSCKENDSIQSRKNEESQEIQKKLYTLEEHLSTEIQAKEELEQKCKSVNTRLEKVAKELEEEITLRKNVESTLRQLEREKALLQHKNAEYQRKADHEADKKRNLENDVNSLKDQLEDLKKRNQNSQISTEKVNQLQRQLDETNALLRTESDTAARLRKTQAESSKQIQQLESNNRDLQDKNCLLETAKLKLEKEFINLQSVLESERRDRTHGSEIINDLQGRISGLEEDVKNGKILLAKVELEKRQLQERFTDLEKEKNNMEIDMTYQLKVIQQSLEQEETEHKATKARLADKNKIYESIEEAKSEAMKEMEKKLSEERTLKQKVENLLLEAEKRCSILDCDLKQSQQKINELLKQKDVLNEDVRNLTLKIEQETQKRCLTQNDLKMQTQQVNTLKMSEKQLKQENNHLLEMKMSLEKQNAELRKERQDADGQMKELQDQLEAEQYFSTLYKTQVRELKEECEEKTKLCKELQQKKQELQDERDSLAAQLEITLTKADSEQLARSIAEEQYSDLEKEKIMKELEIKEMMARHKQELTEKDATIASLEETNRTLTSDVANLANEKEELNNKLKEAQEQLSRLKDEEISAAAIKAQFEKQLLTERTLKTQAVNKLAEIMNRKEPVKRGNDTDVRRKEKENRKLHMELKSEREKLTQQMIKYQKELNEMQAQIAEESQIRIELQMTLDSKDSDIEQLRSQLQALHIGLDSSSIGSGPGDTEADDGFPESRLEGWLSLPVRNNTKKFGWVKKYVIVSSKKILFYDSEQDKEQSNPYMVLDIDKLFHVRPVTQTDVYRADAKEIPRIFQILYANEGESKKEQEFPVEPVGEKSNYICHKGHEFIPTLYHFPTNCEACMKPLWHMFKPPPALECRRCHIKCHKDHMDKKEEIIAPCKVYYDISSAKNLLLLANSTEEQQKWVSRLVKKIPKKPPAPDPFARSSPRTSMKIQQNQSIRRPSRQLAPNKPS
Method: Cells were lysed with lysis buffer (50 mM Tris-HCl (pH 7.5), 150 mM NaCl, 10% glycerol, 1% Nonidet-P40 and protease inhibitor cocktail). The kinase assay was carried out using the lysates.

[3] = system: N1E-115 cells; assay: Morphological analysis of N1E-115 cells; assay type: cell-based; settings: for cell population with long neurites / neurite formation: transfection, 48 h, Y-27632 10 μM for 30 minutes
Method: N1E-115 cells were transfected with GFP, GFP-full-p21 or GFP-ΔNLS-p21, and cultured in serum-starved condition for 5 hours. Then, the medium was replaced with DMEM containing 10% fetal bovine serum. The cells were fixed at 48 hours after transfection. The morphology of the cells was categorized into 3 groups; neurite positive cells, round cells and the other cells. The cells with longer neurites than their soma were defined as neurite positive cells. The other cells had various features including microspikes, ruffles and a flattened appearance.

[4] = target: T2, association of p75 with Rho GDI (Homo sapiens, UniProt P08138); assay: Co-precipitation of p75 with recombinant GST-Rho GDI or GST-RhoA; assay type: binding; settings: for direct binding of recombinant protein to p75 precipitated from transfected 293T cells: RhoA in the GDP-bound, GTP-bound or nucleotide-depleted state
T2 construct: host or cells: 293T (p75)
T2 sequence (P08138 29-427): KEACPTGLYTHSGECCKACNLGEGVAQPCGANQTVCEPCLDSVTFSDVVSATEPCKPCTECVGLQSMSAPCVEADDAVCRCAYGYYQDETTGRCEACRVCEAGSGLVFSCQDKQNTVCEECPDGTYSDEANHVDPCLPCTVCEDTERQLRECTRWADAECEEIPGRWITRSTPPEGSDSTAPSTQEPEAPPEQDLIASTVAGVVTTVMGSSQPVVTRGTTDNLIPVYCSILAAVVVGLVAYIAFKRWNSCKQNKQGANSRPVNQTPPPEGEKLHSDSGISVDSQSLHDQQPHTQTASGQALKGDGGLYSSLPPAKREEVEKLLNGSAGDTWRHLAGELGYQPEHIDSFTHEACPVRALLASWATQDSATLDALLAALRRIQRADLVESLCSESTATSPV

[5] = target: T3, recombinant human p75-Fc chimera (Homo sapiens, UniProt P08138); assay: Co-precipitation of recombinant p75 and gangliosides; assay type: binding; settings: precipitation with protein A sepharose, Western blot
T3 construct: Recombinant p75 extracellular domain fused to Fc purified from Sf21 cells; purchased Genzyme-Techne; host or cells: Sf21
T3 sequence (P08138 29-250 limits assumed): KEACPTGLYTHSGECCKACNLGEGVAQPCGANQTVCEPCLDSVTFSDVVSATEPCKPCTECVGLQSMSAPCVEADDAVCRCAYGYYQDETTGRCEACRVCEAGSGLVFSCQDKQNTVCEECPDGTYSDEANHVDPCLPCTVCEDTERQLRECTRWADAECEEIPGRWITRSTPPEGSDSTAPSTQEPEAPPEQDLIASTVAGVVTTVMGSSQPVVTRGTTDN
Method: Recombinant human p75-Fc chimera (1 μg; Genzyme-Techne) and 1 μg of purified ganglioside GT1b (>98% purity, Seikagaku Co.) were incubated in 200 μl 0.025% Tween20/PBS for 2 h, and p75 was precipitated using proteinA sepharose (Amersham Pharmacia Biotech). The resultant precipitates were electrophoretically transferred to polyvinylidene difluoride membranes after SDS-PAGE with 7% gels and were immunoblotted with anti GT1b antibody (IgM, Seikagaku Co.) or anti p75 antibody.

[6] = target: T4, p75 (Mus musculus, UniProt Q9Z0W1); assay: Co-precipitation of p75 with GST-Pep5; assay type: binding; settings: lysates from post-natal cerebellum
T4 construct: was incubated with lysates prepared from post-natal cerebellum that abundantly express p75; from tissue; host or cells: post-natal cerebellum lysate
T4 sequence (Q9Z0W1 32-427): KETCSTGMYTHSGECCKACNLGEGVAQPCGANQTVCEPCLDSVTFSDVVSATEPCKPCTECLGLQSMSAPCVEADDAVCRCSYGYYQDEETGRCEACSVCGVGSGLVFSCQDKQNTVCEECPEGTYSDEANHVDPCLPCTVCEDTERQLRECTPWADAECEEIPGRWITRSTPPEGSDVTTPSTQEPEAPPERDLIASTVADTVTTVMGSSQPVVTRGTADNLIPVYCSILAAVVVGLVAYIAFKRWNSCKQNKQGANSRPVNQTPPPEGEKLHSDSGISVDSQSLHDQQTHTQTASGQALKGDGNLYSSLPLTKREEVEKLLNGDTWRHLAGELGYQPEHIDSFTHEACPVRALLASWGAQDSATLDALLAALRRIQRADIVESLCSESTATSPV

[7] = system: RhoA; assay: Affinity-precipitation of GTP-RhoA in cerebellar neurons; assay type: cell-based, mouse; settings: MAG-Fc 25 μg/ml, Nogo peptide 4 μM
Method: 293 cells were transfected with pcDNA3 vectors containing wild type RhoA whose NH2-terminus is tagged with HA (Yamashita, T. et al., Neuron. 24:585-593, 1999) and/or full-length human p75 by lipofection using Lipofectamine 2000 (Gibco BRL). Cerebellar neurons from P9 mice were isolated as described previously (Cai et al, Neuron, 22:89-101, 1999). Cells were lysed in 50 mM Tris (pH 7.5), 1% Triton X-100, 0.5% sodium deoxycholate, 0.1% SDS, 500 mM NaCl, 10 mM MgCl2, with leupeptin and aprotinin, each at 10 μg/ml. Cell lysates were clarified by centrifugation at 13,000×g at 4° C. for 10 min, and the supernatants were incubated with the 20 μg of GST-Rho binding domain of Rhotekin beads (Upstate Biotech.) at 4° C. for 45 min. The beads were washed 4 times with washing buffer (50 mM Tris (pH 7.5) containing 1% Triton X-100, 150 mM NaCl, 10 mM MgCl2, 10 μg/ml each of leupeptin and aprotinin). Bound Rho proteins were detected by Western blotting using a monoclonal antibody against RhoA (Santa Cruz Biotechnology).
Amino-terminally FLAG-tagged human p75 or the deletion mutants of p75 ICD were cloned into pcDNA3.1 expression plasmid, and were transfected with 293T cells. […] Bound Rho proteins were detected by Western blotting using a monoclonal antibody against RhoA (Santa Cruz Biotechnology).

[8] = target: T5, interaction of p75 with Rho GDI (Homo sapiens, UniProt P08138); assay: Co-immunoprecipitation of p75 with Rho GDI or RhoA in transfected N1E-115 cells; assay type: cell-based; settings: N1E-115 cells transfected with FLAG-tagged p75; Nogo peptide 4 μM, MAG-Fc 25 μg/ml, NGF 100 ng/ml
T5 construct: expressed in transfected cells; host or cells: N1E-115
T5 sequence (P08138 29-427): T2 sequence (P08138 29-427)

[9] = system: cerebellar neurons; assay: Neurite outgrowth assay, post-natal cerebellar neurons; assay type: cell-based, mouse; settings: cells transfected with myc-tagged Rho GDI
[10] = system: NIH3T3 cells; assay: Stress fiber formation assay; assay type: cell-based; settings: serum-starved 16 hours, 10% serum 10 minutes
Method: as §1

[11] = target: T1, myc-Rho-kinase; assay: Co-immunoprecipitation of p21 constructs and Rho-kinase in 293T cells; assay type: cell-based; settings: 293T cells cotransfected
Method: 293T cells were transfected with myc-Rho-kinase in combination with GFP-full-p21 or GFP-ΔNLS-p21. At 48 hours after transfection, the cells were lysed with 1 ml of lysis buffer (50 mM Tris-HCl (pH 7.5), 150 mM NaCl, 10% glycerol, 0.5% Nonidet-P40 including protease inhibitor cocktail tablets (Roche). The cell lysates were centrifuged at 13,000×g for 20 minutes, and the supernatant was collected. Immunoprecipitations were performed for 2 hours at 4° C. using an anti-p21 mouse monoclonal antibody (Santa Cruz Biotechnology) and 0.75 ml of the supernatant. The immunocomplexes were collected with protein G-Sepharose (Amersham Pharmacia Biotech) slurry (50% v/v), washed 4 times with lysis buffer, and subjected to SDS-PAGE. They were transferred to the polyvinylidene difluoride membranes and probed with the anti-myc rabbit polyclonal antibody (Santa Cruz Biotechnology). Interaction of endogenous proteins in N1E-115 cells was assessed in the same way using anti Rho-kinase antibody.

[12] = system: hippocampal neurons; assay: Neurite outgrowth and branching of hippocampal neurons; assay type: cell-based; settings: rat E18, 24 hours after transfection
Method: as §1
Cultures of the hippocampal neurons from rat E18 embryos were used. […] Twenty-four hours after transfection, the cells were fixed and immunolabeled with β-tubulin III. The total neurite length per neuron, the axonal length, defined as the length of the longest neurite per neuron, the number of primary processes originating from the neuronal somata, and the number of branch points per neuron were determined (Neumann, H. et al., J. Neurosci. 22:854-862, 2002).

## C[S+](C)[O-] [DMSO, reference compound]
[1]
  phosphorylation state of pRb: hyperphosphorylated pRb became undetectable
  protein level of cyclin D3: strongly increased

## C[C@@H](N)[C@H]1CC[C@H](C(=O)Nc2ccncc2)CC1 [Y-27632, reference compound]
[2]; HEK-293T, Y-27632 10 μM for 30 minutes, read-out: (compared to the original) inhibition of Rho-kinase activity
  inhibition at 10 µM: 51.9%
[3]
  cell population with long neurites / neurite formation: induced significant neurite formation

## CFFRGGFFNHNPRYC [Pep5]
[4]; 1 μM GST-Rho GDI, Pep5 at the indicated concentrations
  association of p75 with Rho GDI: inhibited the association of p75 with Rho GDI dose dependently

## GD1a
[5]
  association of ganglioside with recombinant p75 extracellular domain fused to Fc: did not see any interaction

## GM1
[5]
  association of ganglioside with recombinant p75 extracellular domain fused to Fc: no interaction

## GST-Pep5: Glutathione S-transferase-fusion protein containing Pep5 (CFFRGGFFNHNPRYC; cysteine pairing not given here; also: GST fusion protein)
[6]
  co-precipitation of p75 with GST-Pep5: presence of a protein corresponding to p75

## GT1b
[5]
  association of ganglioside with recombinant p75 extracellular domain fused to Fc: binds to p75 in a manner that is SDS-resistant

## NGF: Nerve growth factor [reference compound]
[7]
  RhoA activity in cerebellar granule neurons from wild type mice (P9): rapidly inhibits RhoA activity
[8]
  interaction of p75 with Rho GDI and RhoA: abolished the interaction of p75 with Rho GDI as well as RhoA

## Rho GDI: Rho GDP dissociation inhibitor; recombinant GST-Rho GDI or myc-tagged Rho GDI over-expressed in neurons
[4]
  direct binding of recombinant protein to p75 precipitated from transfected 293T cells: bound to p75
[9]
  inhibitory effects of MAG and the Nogo peptide on neurite outgrowth on over-expression of Rho GDI: abolished these inhibitory effects

## RhoA: bacterially produced RhoA (GST-RhoA)
[4]
  direct binding of recombinant protein to p75 precipitated from transfected 293T cells: no interaction between them in any nucleotide state

## full-p21: GFP fused full length p21 (aa 1-164) expressed from pEGFP-full-p21
[1]
  protein level of cyclin D3: strongly increased
  growth of N1E-115 cells: stopped proliferation
[10]
  formation of actin stress fibers after the addition of serum: Extensive actin stress fibers were observed
[11]
  co-immunoprecipitation of myc-tagged Rho-kinase with anti-p21 antibody: only a faint signal could be detected
[2]
  Rho-kinase activity in transfected cells: had no significant effect
[3]; 48 hours after transfection
  cell rounding: decreased cell rounding
[3]
  cell population with long neurites / neurite formation: no increase in the cell population that had long neurites

## ΔNLS-p21: GFP fused p21 with loss of nuclear localization signal (aa 1-140) expressed from pEGFP-ΔNLS-p21
[1]
  phosphorylation state of pRb: hyperphosphorylated pRb remained predominant
  protein level of cyclin D3: no change in the expression
  growth of N1E-115 cells: proliferated until 48 hours after transfection
[10]
  formation of actin stress fibers after the addition of serum: had little stress fiber formation
[12]
  number of primary processes: no change
[12]; control 1.3
  number of branch points per neuron: 2.6 (±0.3 SEM)
[12]; control 66.3
  axonal length (longest neurite per neuron): 162.9 μm
[12]; control 135.9
  total neurite length per neuron: 307.2 μm
[11]
  co-immunoprecipitation of myc-tagged Rho-kinase with anti-p21 antibody: efficiently precipitated myc-tagged Rho-kinase
[3]; 48 hours after transfection
  cells that extended long neurites: more than 45%
  increase of cells with long neurites compared to the control: 3.1 -fold
